{"source": "PubChem BioAssay (NCI)", "assay_in_all_cases": "DTP human tumour cell line panel, 384-well format", "key": {"SF-268 CNS": {"test_system": "SF-268 CNS"}, "HOP-92 NSCLC": {"test_system": "HOP-92 NSCLC"}, "HOP-62 NSCLC": {"test_system": "HOP-62 NSCLC"}, "MCF7 breast": {"test_system": "MCF7 breast"}, "UACC-257 melanoma": {"test_system": "UACC-257 melanoma"}, "SF-539 CNS": {"test_system": "SF-539 CNS"}, "RPMI-8226 leukemia": {"test_system": "RPMI-8226 leukemia"}, "HL-60(TB) leukemia": {"test_system": "HL-60(TB) leukemia"}, "CCRF-CEM leukemia": {"test_system": "CCRF-CEM leukemia"}, "786-0 renal": {"test_system": "786-0 renal"}, "M14 melanoma": {"test_system": "M14 melanoma"}, "MALME-3M melanoma": {"test_system": "MALME-3M melanoma"}, "OVCAR-8 ovarian": {"test_system": "OVCAR-8 ovarian"}, "A549 NSCLC": {"test_system": "A549 NSCLC"}, "SK-OV-3 ovarian": {"test_system": "SK-OV-3 ovarian"}, "ACHN renal": {"test_system": "ACHN renal"}, "OVCAR-4 ovarian": {"test_system": "OVCAR-4 ovarian"}, "COLO 205 colon": {"test_system": "COLO 205 colon"}, "PC-3 prostate": {"test_system": "PC-3 prostate"}, "MDA-MB-468 breast": {"test_system": "MDA-MB-468 breast"}, "SN12C renal": {"test_system": "SN12C renal"}, "NCI-H226 lung": {"test_system": "NCI-H226 lung"}, "SK-MEL-28 melanoma": {"test_system": "SK-MEL-28 melanoma"}, "SW-620 colon": {"test_system": "SW-620 colon"}, "LOX IMVI melanoma": {"test_system": "LOX IMVI melanoma"}, "IGROV1 ovarian": {"test_system": "IGROV1 ovarian"}, "A498 renal": {"test_system": "A498 renal"}, "HT29 colon": {"test_system": "HT29 colon"}}, "note": "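At the GI50, growth is halved. TGI is the concentration that stops growth completely.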"}
{"smiles": "Cc1ccc(S(=O)(=O)Oc2ccc3sc4c(CO)ccc(NCCN(C)C)c4c(=O)c3c2)cc1", "values": [{"measurement": "GI50", "setting": "SF-268 CNS", "value": 2.2, "unit": "µM"}, {"measurement": "TGI", "setting": "SF-268 CNS", "value": 3.66, "unit": "µM"}, {"measurement": "GI50", "setting": "HOP-92 NSCLC", "value": 2.12, "unit": "µM"}, {"measurement": "TGI", "setting": "HOP-92 NSCLC", "value": 3.57, "unit": "µM"}, {"measurement": "GI50", "setting": "HOP-62 NSCLC", "value": 2.08, "unit": "µM"}, {"measurement": "TGI", "setting": "HOP-62 NSCLC", "value": 3.52, "unit": "µM"}, {"measurement": "GI50", "setting": "MCF7 breast", "value": 1.72, "unit": "µM"}, {"measurement": "TGI", "setting": "MCF7 breast", "value": 3.11, "unit": "µM"}, {"measurement": "GI50", "setting": "UACC-257 melanoma", "value": 2.84, "unit": "µM"}, {"measurement": "TGI", "setting": "UACC-257 melanoma", "value": 4.32, "unit": "µM"}, {"measurement": "GI50", "setting": "SF-539 CNS", "value": 2.08, "unit": "µM"}, {"measurement": "TGI", "setting": "SF-539 CNS", "value": 3.54, "unit": "µM"}, {"measurement": "GI50", "setting": "RPMI-8226 leukemia", "value": 1.92, "unit": "µM"}, {"measurement": "TGI", "setting": "RPMI-8226 leukemia", "value": 3.33, "unit": "µM"}, {"measurement": "GI50", "setting": "HL-60(TB) leukemia", "value": 1.59, "unit": "µM"}, {"measurement": "TGI", "setting": "HL-60(TB) leukemia", "value": 2.95, "unit": "µM"}, {"measurement": "GI50", "setting": "CCRF-CEM leukemia", "value": 1.62, "unit": "µM"}, {"measurement": "TGI", "setting": "CCRF-CEM leukemia", "value": 2.99, "unit": "µM"}, {"measurement": "GI50", "setting": "786-0 renal", "value": 1.85, "unit": "µM"}, {"measurement": "TGI", "setting": "786-0 renal", "value": 3.27, "unit": "µM"}, {"measurement": "GI50", "setting": "M14 melanoma", "value": 2.16, "unit": "µM"}, {"measurement": "TGI", "setting": "M14 melanoma", "value": 3.61, "unit": "µM"}, {"measurement": "GI50", "setting": "MALME-3M melanoma", "value": 2.15, "unit": "µM"}, {"measurement": "TGI", "setting": "MALME-3M melanoma", "value": 3.61, "unit": "µM"}, {"measurement": "GI50", "setting": "OVCAR-8 ovarian", "value": 1.63, "unit": "µM"}, {"measurement": "TGI", "setting": "OVCAR-8 ovarian", "value": 3.02, "unit": "µM"}, {"measurement": "GI50", "setting": "A549 NSCLC", "value": 1.84, "unit": "µM"}, {"measurement": "TGI", "setting": "A549 NSCLC", "value": 3.28, "unit": "µM"}, {"measurement": "GI50", "setting": "SK-OV-3 ovarian", "value": 1.94, "unit": "µM"}, {"measurement": "TGI", "setting": "SK-OV-3 ovarian", "value": 3.38, "unit": "µM"}, {"measurement": "GI50", "setting": "ACHN renal", "value": 1.89, "unit": "µM"}, {"measurement": "TGI", "setting": "ACHN renal", "value": 3.33, "unit": "µM"}, {"measurement": "GI50", "setting": "OVCAR-4 ovarian", "value": 2.24, "unit": "µM"}, {"measurement": "TGI", "setting": "OVCAR-4 ovarian", "value": 3.7, "unit": "µM"}, {"measurement": "GI50", "setting": "COLO 205 colon", "value": 2.14, "unit": "µM"}, {"measurement": "TGI", "setting": "COLO 205 colon", "value": 3.6, "unit": "µM"}, {"measurement": "GI50", "setting": "PC-3 prostate", "value": 2.01, "unit": "µM"}, {"measurement": "TGI", "setting": "PC-3 prostate", "value": 3.45, "unit": "µM"}, {"measurement": "GI50", "setting": "MDA-MB-468 breast", "value": 3.82, "unit": "µM"}, {"measurement": "TGI", "setting": "MDA-MB-468 breast", "value": 5.27, "unit": "µM"}, {"measurement": "GI50", "setting": "SN12C renal", "value": 1.64, "unit": "µM"}, {"measurement": "TGI", "setting": "SN12C renal", "value": 3.01, "unit": "µM"}, {"measurement": "GI50", "setting": "NCI-H226 lung", "value": 1.47, "unit": "µM"}, {"measurement": "TGI", "setting": "NCI-H226 lung", "value": 2.8, "unit": "µM"}, {"measurement": "GI50", "setting": "SK-MEL-28 melanoma", "value": 2.16, "unit": "µM"}, {"measurement": "TGI", "setting": "SK-MEL-28 melanoma", "value": 3.62, "unit": "µM"}, {"measurement": "GI50", "setting": "SW-620 colon", "value": 1.84, "unit": "µM"}, {"measurement": "TGI", "setting": "SW-620 colon", "value": 3.27, "unit": "µM"}, {"measurement": "GI50", "setting": "LOX IMVI melanoma", "value": 1.71, "unit": "µM"}, {"measurement": "TGI", "setting": "LOX IMVI melanoma", "value": 3.11, "unit": "µM"}, {"measurement": "GI50", "setting": "IGROV1 ovarian", "value": 1.79, "unit": "µM"}, {"measurement": "TGI", "setting": "IGROV1 ovarian", "value": 3.18, "unit": "µM"}, {"measurement": "GI50", "setting": "A498 renal", "value": 1.98, "unit": "µM"}, {"measurement": "TGI", "setting": "A498 renal", "value": 3.41, "unit": "µM"}, {"measurement": "GI50", "setting": "HT29 colon", "value": 1.8, "unit": "µM"}]}
